In patent publication US9545411B2, “Methods and compositions for treating progesterone-dependent conditions” (REPROS THERAPEUTICS INC., priority 2012, dated 2017):

How the values were obtained:
[1] = test system: progesterone-induced endometrial proliferation; test: Anti-Clauberg study, subcutaneous versus oral; format: in vivo, rabbits
Description: FIG. 3 illustrates a comparison of the inhibition of progesterone-induced endometrial proliferation in estradiol-primed immature rabbits following subcutaneous injection and oral administration of CDB-4124.
To determine whether the low circulating levels of CDB-4124 when administered locally could have any impact predictive of efficacy, an anti-Clauberg study was run in which immature estradiol-primed rabbits were coadministered progesterone and various doses of CDB-4124 by either subcutaneous or oral administration. At least 3 different highly trained individuals evaluated the rabbit uterus for glandular growth, for complexity and overall progesterone-induced “development”. The inhibition (by percentage) of progesterone-induced endometrial proliferation at each dose was assayed. […] However, maximal inhibition required a ˜8-fold increase in dosage when administered orally (i.e. 8 mg/kg). Importantly 8 mg/kg corresponds closely to the 50 mg/day dose of CDB-4124 administered to the female subjects described in Example 3.

[2] = test system: DMBA-induced breast tumors; test: DMBA-induced breast tumor model, subcutaneous injection; format: in vivo, rodents
Description: Pre-clinical studies were performed on rodents with breast tumors induced by 7,12-Dimethylbenz(a)anthracene (DMBA).

[3] = Clinical trials of daily oral Proellex (CDB-4124): liver toxicity / liver enzymes; format: in vivo, human; conditions: for subjects with liver enzyme elevations reported as SAEs: of seven SAEs
Description: (§1) The maximum concentrations of CDB-4124 and its mono-demethylated metabolite (CDB-4453) for the 12.5 mg dose were 25% of the 50 mg dose. All liver toxicities resolved in those women that returned for safety follow-ups, including those subjects that developed liver-associated serious adverse effects (SAEs).
To date, over 600 patients, including women with confirmed cases of endometriosis or uterine fibroids, have participated in double blind and open label clinical trials in which patients were administered daily oral capsules containing doses of 12.5 mg, 25 mg or 50 mg CDB-4124 (Proellex) for over one month. Of these patients, about 500 received Proellex and about 130 received a placebo. Of the patients receiving Proellex, about 190 received a dose of 50 mg CDB-4124 per day, about 260 received a dose of 25 mg CDB-4124 per day and about 55 received a dose of 12.5 mg per day.
Liver enzymes were frequently monitored in participating subjects. The liver enzyme level at which the clinical trials would be discontinued was set at an increase in liver aminotransferases greater than, or equal to three times the Upper Limit of Normal (≧3×ULN).
Of the nine subjects with a confirmed increase in liver enzymes ≧3×ULN, seven were severe enough elevations to be reported to the FDA as SAEs. One of these seven subjects had been receiving a dose of 25 mg CDB-4124 per day; the remaining six subjects had been receiving a dose of 50 mg CDB-4124 per day. Liver enzymes ≧3×ULN persisted in five of the nine subjects with a confirmed increase in liver enzymes ≧3×ULN. These five subjects had previously been dosed with the 50 mg dose. One of these subjects is receiving oral medication for treatment of their liver condition. Clinical trials involving CDB-4124 at all doses were voluntarily suspended as a result of these SAEs and were subsequently placed on clinical hold by the United States Food and Drug Administration for safety reasons.

[4] = test system: primary cultures of human and animal hepatocytes; test: Metabolism in primary cultures of hepatocytes; format: in vitro ADME; conditions: primary hepatocyte cultures
[5] = test system: progesterone-induced endometrial proliferation; test: Anti-Clauberg study, vaginal versus oral (McPhail index); format: in vivo, rabbits
Description: FIG. 4 compares the antiprogestational effects of three doses of CDB-4124 when delivered orally versus when delivered to the vaginal mucosa of estradiol-primed immature rabbits in the presence of progesterone, as measured by a decrease in the McPhail index. Treatment with progesterone alone (vehicle control) provided a baseline measurement of progestational activity.
Another anti-Clauberg study was run in which immature estradiol-primed rabbits were administered progesterone alone (vehicle control) or were coadministered progesterone and three doses of CDB-4124 by either vaginal or oral administration. The inhibition of progesterone-induced endometrial proliferation at each dose was assayed. FIG. 3 illustrates the decrease in the McPhail index following increasing doses of CDB-4124 administered by either route. Maximal inhibition (i.e. a decrease in the McPhail index to 1.5) occurred at 0.2 mg/kg CDB-4124 when administered vaginally, compared to 0.8 mg/kg when administered orally.

[6] = test system: uterine fibroids; test: Single blind study of vaginal CDB-4124 in females with uterine fibroids; format: in vivo, human; conditions: vaginal 12 mg daily
Description: Seven human females with uterine fibroids have completed 4 months of treatment as part of a single blind study. These females were vaginally administered a daily dose of 12 mg CDB-4124 for a period of four months, with dosing initiated during the luteal phase of the females' menstrual cycles. At the end of the four month treatment period, all seven females stopped menstruating and all reported a Pictural Blood Loss Assessment Chart (PBAC) score of 0 (p=0.002). A statistically significant and highly clinically meaningful reduction in Uterine Fibroid Symptom Quality of Life Survey (UFSQOL) scores was also observed. The mean UFSQOL score at baseline was 43.8 and at the end of the four month treatment period the mean score was 1.33 (p=0.001). […] As a reference, women with fibroids typically score 40 or higher, whereas women without fibroids report scores of approximately 20.
Change in fibroid volume at the end of the four month treatment period determined by magnetic resonance imagining (MRI) was assessed and a statistically significant (chi square analysis) median reduction of total fibroid volume of 36% was observed.

[7] = Cmax after vaginal administration in beagles extrapolated to humans; format: in vivo; conditions: for predicted Cmax for vaginal administration as percentage of the same oral dose: humans, extrapolated from beagles
Description: FIG. 2 illustrates the actual Cmax observed for Proellex (CDB-4124) and its monodemethylated metabolite CDB-4453, following oral administration of CDB-4124 at 12.5 mg, 25 mg and 50 mg doses as well as the projected Cmax for 3 mg, 6 mg and 9 mg doses. FIG. 2 also illustrates the actual Cmax observed for Proellex (CDB-4124) and its monodemethylated metabolite CDB-4453, following vaginal administration of CDB-4124 at 12.5 mg, 25 mg and 50 mg doses.
The maximum circulating concentrations (Cmax) of CDB-4124 obtained following vaginal administration to beagles were extrapolated to humans for the 12.5 mg, 25 mg and 50 mg doses actually administered during the Phase III clinical studies.
For example, equivalent antiprogestational activity at the uterus is observed for a 50 mg oral dose of CDB-4124 and a 12.5 mg vaginal dose; however, the Cmax observed with a 12.5 mg vaginal dose is only 2% that observed with a 50 mg oral dose. […] Because a high concentration of the drug in the systemic circulation (and associated first pass metabolism of the drug) is not reached by local administration, avoidance of the severe liver toxicity observed in a small percentage of subjects following oral administration of CDB-4124 in previous Phase III clinical studies at doses of 25 and 50 mg is a surprising advantage of administering the drug locally. Similar advantages should inure to local administration of other antiprogestins.

[8] = Pharmacokinetic studies in clinical trial subjects after oral CDB-4124; format: in vivo, human; conditions: for maximum concentration for the 12.5 mg dose as percentage of the 50 mg dose: oral CDB-4124
Description: as §1
Pharmacokinetic studies performed on participating subjects detected a high Cmax and a Tmax at 1-2 hours following administration. Large quantities of the monodemethylated metabolite of CDB-4124 were also detected, clearly indicating first pass metabolism of the antiprogestin. […] Metabolism of CDB-4124 by the liver provides the opportunity for liver damage and greatly reduces the concentration of the antiprogestin before it reaches the systemic circulation. Thus, alternative routes of administration of antiprogestins that avoid first pass metabolism such as, without limitation, intravenous, intramuscular, and sublingual, should allow antiprogestins to be absorbed directly into the systemic circulation and thereby provide a method for treating progesterone-dependent conditions while avoiding liver toxicity. Administration routes which avoid first pass metabolism may also require less drug per dose to achieve the same therapeutic benefit relative to oral administration.

[9] = test system: hypothalamic pituitary axis (HPA); test: Low-dose oral CDB-4124: effect on ovulation; format: in vivo; conditions: about 3-25 mg
Description: Contemporaneous systemic and local administration of antiprogestins to treat hormonally responsive breast cancer (i.e. the breast tumor contains estrogen and/or progesterone receptor) has advantages as well.

[10] = Oral study, 1-12 mg CDB-4124 for 10 weeks; format: in vivo
Description: (§2) In an oral study, doses of 1, 3, 6, 9 and 12 mg of CDB-4124 were administered for a period of 10 weeks. […] Cessation of menses directly correlated to efficacy of an oral dose in both uterine fibroids and endometriosis.

[11] = Pharmacokinetic analysis of vaginal administration of 12 mg CDB-4124; format: in vivo, human
Description: as §2
Thus, the onset of amenorrhea is delayed when the drug is administered vaginally, necessitating that the drug be vaginally administered during subsequent menstruations, which tends to reduce absorption of the drug and is unpleasant and technically challenging for the patient. The methods of the present invention provide a solution to this problem by providing a brief period of oral administration, preceding and overlapping vaginal administration, which expedites the onset of amenorrhea while retaining the benefits of vaginal administration.

[12] = Oral versus vaginal pharmacokinetics in beagles (25 mg); format: in vivo; conditions: for metabolism after oral administration: oral micronized powder; for metabolism after vaginal administration / peak plasma concentration (Cmax): vaginal suppository
Description: FIG. 1 illustrates a comparison of the Cmax (peak serum concentration) and area under the curve (AUC) following oral and vaginal administration of CDB-4124 or CDB-4453 at a 25 mg dose in beagles.
Beagles were administered 25 mg of CDB-4124 or CDB-4453 (the monodemethylated metabolite of CDB-4124) formulated as either a micronized powder or a vaginal suppository.

Structure (SMILES): COCC(=O)[C@@]1(OC(C)=O)CC[C@H]2[C@@H]3CCC4=CC(=O)CCC4=C3[C@@H](c3ccc(N(C)C)cc3)C[C@@]21C [CDB-4124, 21-methoxy-17α-acetoxy-11β-(4 N, N-dimethylaminophenyl)-19-norpregna-4,9-diene-3,20-dione]
- dose giving maximal inhibition of progesterone-induced endometrial proliferation ([1]; oral): 8 mg/kg
- increase in dosage required for maximal inhibition, oral vs. subcutaneous ([1]; rabbit, in vivo): ~8 fold
- dose giving maximal inhibition of progesterone-induced endometrial proliferation ([1]; subcutaneous): less than 1 mg/kg
- effect on quantity and size of DMBA-induced breast tumors [2]: effective in reducing the quantity and size of DMBA-induced breast tumors
- adverse liver toxicity signals ([3]; 12.5 mg): no adverse liver toxicity signals different from placebo
- subjects with liver enzyme elevations reported as SAEs ([3]; 25 mg per day): One
- frequency and intensity of liver effects relative to 50 mg/day ([3]; 25 mg/day): significantly lower in frequency and intensity
- subjects in whom liver enzymes ≧3×ULN persisted ([3]; 50 mg dose, of nine confirmed): five
- subjects with liver enzyme elevations reported as SAEs ([3]; 50 mg per day): six
- women exhibiting severe liver toxicity ([3]; 50 mg/day): 3-4%
- subjects with confirmed increase in liver enzymes ≧3×ULN ([3]; all doses (12.5, 25, 50 mg/day), confirmed by repeat test in 48 hours): nine
- formation of mono-demethylated metabolite [4]: rapidly produce the mono-demethylated metabolite
- McPhail index at maximal inhibition ([5]; 0.2 mg/kg vaginal or 0.8 mg/kg oral): 1.5
- dose giving maximal inhibition (decrease in McPhail index) ([5]; oral): 0.8 mg/kg
- antiprogestational activity of vaginal delivery relative to the same oral dose ([5]; rabbit, in vivo, po): four
- dose giving maximal inhibition (decrease in McPhail index) ([5]; vaginal): 0.2 mg/kg
- median reduction of total fibroid volume (MRI) ([6]; end of four months): 36%
- Pictural Blood Loss Assessment Chart (PBAC) score ([6]; end of four months, p=0.002): 0
- females who stopped menstruating ([6]; end of four months, seven females): seven
- mean Uterine Fibroid Symptom Quality of Life Survey (UFSQOL) score ([6]; end of four months, baseline 43.8, p=0.001): 1.33
- females no longer experiencing any fibroid related symptoms ([6]; four months, of seven): six
- predicted Cmax for vaginal administration as percentage of the same oral dose ([7]; 12.5 mg dose): approximately 6.5%
- predicted Cmax for vaginal administration as percentage of the same oral dose ([7]; 50 mg dose): approximately 2%
- Cmax with a 12.5 mg vaginal dose as percentage of a 50 mg oral dose ([7]; in vivo, po): 2%
- Tmax ([8]; following oral administration): 1 to 2 h
- maximum concentration for the 12.5 mg dose as percentage of the 50 mg dose [8]: 25%
- suppression of ovulation [9]: partially but not completely suppress ovulation
- lowest dose inducing reliable cessation of menses ([10]; oral): 3 mg
- tolerability ([10]; oral 1, 3, 6, 9 and 12 mg): well tolerated
- maximum exposure (Cmax) relative to a 50 mg oral dose ([11]; vaginal 12 mg): about 1/100
- systemic exposure (AUC) relative to an equivalent oral dose ([11]; vaginal 12 mg): about ⅙
- build-up of drug concentration, vaginal relative to oral ([11]; vaginal administration): build slowly
- systemic exposure (AUC), vaginal vs. oral [12]: much lower when administered locally
- metabolism after oral administration [12]: rapidly metabolized
- metabolism after vaginal administration [12]: metabolized slowly
- peak plasma concentration (Cmax) [12]: relatively low

Structure (SMILES): CNc1ccc([C@H]2C[C@@]3(C)[C@@H](CC[C@]3(OC(C)=O)C(=O)COC)[C@@H]3CCC4=CC(=O)CCC4=C32)cc1 [CDB-4453, 21-methoxy-17α-acetoxy-11β-(4-N-methylaminophenyl)-19-norpregna-4,9-diene-3,20-dione]
- maximum concentration for the 12.5 mg dose as percentage of the 50 mg dose [8]: 25%
- systemic exposure (AUC), vaginal vs. oral [12]: much lower when administered locally
- metabolism after oral administration [12]: rapidly metabolized
- metabolism after vaginal administration [12]: metabolized slowly
- peak plasma concentration (Cmax) [12]: relatively low
